Data from the NIST ThermoML archive (doi:10.1016/j.fluid.2013.03.002).
Numbers after ± are expanded uncertainties.

Key:
[1] = 101.33 kPa, Liquid, Vibrating tube method
[2] = refractive index (Na D-line) (dimensionless); conditions: 101.33 kPa, Liquid, Standard Abbe refractometry

Structure (SMILES): CCCOCC(C)OCC(C)O (stereo not drawn) [1-(1-methyl-2-propoxyethoxy)-2-propanol]
- mass density ([1]; 293.15 K): 920.14 ± 1 kg/m3
- mass density ([1]; 298.15 K): 915.65 ± 1 kg/m3
- refractive index ([2]; 293.15 K): 1.4225 ± 0.0005
- refractive index ([2]; 298.15 K): 1.4214 ± 0.0005

Structure (SMILES): CCCCCCCCCCCCCCCC [hexadecane]
- mass density ([1]; 293.15 K): 773.5 ± 1 kg/m3
- mass density ([1]; 298.15 K): 769.93 ± 1 kg/m3
- refractive index ([2]; 293.15 K): 1.4342 ± 0.0006
- refractive index ([2]; 298.15 K): 1.4326 ± 0.0006
